According to ChEMBL document CHEMBL1132843, “A convenient procedure for the synthesis of nonsymmetrical bivalent selective serotonin reuptake inhibitors using polymer-supported reagents” (Bioorg Med Chem Lett, 2000):

Key:
[1] = target: Monoamine transporters; serotonin & dopamine (Rattus norvegicus) (UniProt P31652+P23977); experiment: Ratio of selective inhibition of dopamine(DA) to serotonin(5-HT) was evaluated; type: protein assay
[2] = target: Norepinephrine transporter (Rattus norvegicus, UniProt Q9WTR4); experiment: Inhibition of norepinephrine transporter by inhibition of [3H]NE uptake into rat nerve endings (synaptosomes); type: subcellular, Brain
Norepinephrine transporter, sequence (Q9WTR4 whole entry): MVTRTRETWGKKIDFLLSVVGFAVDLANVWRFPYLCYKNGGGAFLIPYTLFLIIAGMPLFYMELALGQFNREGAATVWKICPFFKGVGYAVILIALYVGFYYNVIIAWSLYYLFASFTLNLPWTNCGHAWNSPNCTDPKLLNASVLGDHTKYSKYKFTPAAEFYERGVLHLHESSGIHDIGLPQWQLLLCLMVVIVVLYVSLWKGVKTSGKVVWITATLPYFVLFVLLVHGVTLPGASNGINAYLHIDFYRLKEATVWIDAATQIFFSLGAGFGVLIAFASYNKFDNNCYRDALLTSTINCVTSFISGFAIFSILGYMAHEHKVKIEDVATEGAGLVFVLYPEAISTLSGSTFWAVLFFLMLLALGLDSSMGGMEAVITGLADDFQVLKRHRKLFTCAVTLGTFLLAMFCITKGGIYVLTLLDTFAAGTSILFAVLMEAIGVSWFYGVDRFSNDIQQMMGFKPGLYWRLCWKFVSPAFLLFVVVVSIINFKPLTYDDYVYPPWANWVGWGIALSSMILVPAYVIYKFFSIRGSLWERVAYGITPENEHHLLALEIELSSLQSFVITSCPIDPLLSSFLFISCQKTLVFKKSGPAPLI

[3] = target: Sodium-dependent serotonin transporter (Rattus norvegicus, UniProt P31652); experiment: Inhibition of [3H]5-HT uptake into rat synaptosomes by Serotonin transporter; type: functional, subcellular, Brain
Sodium-dependent serotonin transporter, sequence (P31652 whole entry): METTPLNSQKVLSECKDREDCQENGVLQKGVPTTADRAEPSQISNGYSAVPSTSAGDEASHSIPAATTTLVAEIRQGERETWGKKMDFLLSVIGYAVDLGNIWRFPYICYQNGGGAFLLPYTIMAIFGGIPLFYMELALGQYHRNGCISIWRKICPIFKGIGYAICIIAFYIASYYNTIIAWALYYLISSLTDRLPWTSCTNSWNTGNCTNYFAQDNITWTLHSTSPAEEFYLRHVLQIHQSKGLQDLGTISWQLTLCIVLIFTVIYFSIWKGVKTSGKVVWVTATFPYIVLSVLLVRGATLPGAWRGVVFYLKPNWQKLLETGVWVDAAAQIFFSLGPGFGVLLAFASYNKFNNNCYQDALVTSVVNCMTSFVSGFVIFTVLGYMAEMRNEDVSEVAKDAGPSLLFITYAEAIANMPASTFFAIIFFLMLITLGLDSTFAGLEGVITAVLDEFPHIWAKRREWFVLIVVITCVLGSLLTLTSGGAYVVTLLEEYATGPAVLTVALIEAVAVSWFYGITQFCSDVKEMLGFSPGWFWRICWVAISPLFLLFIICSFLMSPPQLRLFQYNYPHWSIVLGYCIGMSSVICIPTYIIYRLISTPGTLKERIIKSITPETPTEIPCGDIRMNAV

[4] = target: Sodium-dependent dopamine transporter (Rattus norvegicus, UniProt P23977); experiment: Inhibition of [3H]DA uptake at Dopamine transporter into rat nerve endings (synaptosomes); type: subcellular, Brain
Sodium-dependent dopamine transporter, sequence (P23977 whole entry): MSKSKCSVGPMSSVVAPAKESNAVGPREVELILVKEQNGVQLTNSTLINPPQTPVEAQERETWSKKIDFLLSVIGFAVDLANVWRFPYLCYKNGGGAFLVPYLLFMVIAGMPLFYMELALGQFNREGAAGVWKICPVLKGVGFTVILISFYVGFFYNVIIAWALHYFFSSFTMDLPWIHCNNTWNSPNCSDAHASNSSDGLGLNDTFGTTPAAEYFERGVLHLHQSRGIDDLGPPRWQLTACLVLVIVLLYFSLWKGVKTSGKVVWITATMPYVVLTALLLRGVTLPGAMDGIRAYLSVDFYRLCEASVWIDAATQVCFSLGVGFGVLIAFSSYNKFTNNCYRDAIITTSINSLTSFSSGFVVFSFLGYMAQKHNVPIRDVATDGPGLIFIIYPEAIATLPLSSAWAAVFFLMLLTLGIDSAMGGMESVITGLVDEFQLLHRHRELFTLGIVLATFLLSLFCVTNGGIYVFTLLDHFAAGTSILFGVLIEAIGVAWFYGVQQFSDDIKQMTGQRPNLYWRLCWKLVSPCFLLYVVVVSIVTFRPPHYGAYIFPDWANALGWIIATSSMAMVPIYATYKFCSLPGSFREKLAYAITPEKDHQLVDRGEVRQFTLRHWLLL

Monoamine transporters; serotonin & dopamine (Rattus norvegicus), sequence (P23977 whole entry, looked up): as the sequence (P23977 whole entry) above
Monoamine transporters; serotonin & dopamine (Rattus norvegicus), sequence (P31652 whole entry, looked up): as the sequence (P31652 whole entry) above

Structure (SMILES): CN1CC[C@@H](c2ccc(Cl)cc2)[C@H](C(=O)NCc2ccc(CNC(=O)CCc3ccccc3)cc2)C1
- Ratio [1]: > 30
- Ki [2]: > 1000 nM
- Ki [3]: 67 nM
- Ki [4]: > 2000 nM

Structure (SMILES): Cc1ccc(C(=O)NCc2ccc(CNC(=O)[C@@H]3CN(C)CC[C@H]3c3ccc(Cl)cc3)cc2)cc1
- Ratio [1]: > 36
- Ki [2]: > 1000 nM
- Ki [3]: 195 nM
- Ki [4]: > 7000 nM

Structure (SMILES): CN1CC[C@@H](c2ccc(Cl)cc2)[C@H](C(=O)NCc2ccc(CNC(=O)c3ccc(C(F)(F)F)cc3)cc2)C1
- Ratio [1]: > 12
- Ki [2]: 651 nM
- Ki [3]: 334 nM
- Ki [4]: > 4000 nM

Structure (SMILES): CN1CC[C@@H](c2ccc(Cl)cc2)[C@H](C(=O)NCc2ccc(CNC(=O)c3ccccc3)cc2)C1
- Ki [3]: 30 nM

Structure (SMILES): CN1CC[C@@H](c2ccc(Cl)cc2)[C@H](C(=O)NCc2ccc(CNC(=O)c3cccc(C(F)(F)F)c3)cc2)C1
- Ratio [1]: > 143
- Ki [2]: 508 nM
- Ki [3]: 35 nM
- Ki [4]: > 5000 nM

Structure (SMILES): CN1CC[C@@H](c2ccc(Cl)cc2)[C@H](C(=O)NCc2ccc(CNC(=O)c3ccc(Cl)cc3Cl)cc2)C1
- Ki [3]: 139 nM

Structure (SMILES): CN1CC[C@@H](c2ccc(Cl)cc2)[C@H](C(=O)NCc2ccc(CNC(=O)[C@@H]3CN(C)CC[C@H]3c3ccc(Cl)cc3)cc2)C1
- Ratio [1]: > 7000
- Ki [2]: 74 nM
- Ki [3]: 0.32 nM
- Ki [4]: 2270 nM

Structure (SMILES): CN1CC[C@@H](c2ccc(Cl)cc2)[C@H](C(=O)NCc2ccc(CNC(=O)c3cccc(Cl)c3)cc2)C1
- Ratio [1]: > 121
- Ki [2]: 1040 nM
- Ki [3]: 33 nM
- Ki [4]: > 4000 nM

Structure (SMILES): COc1ccc(C(=O)NCc2ccc(CNC(=O)[C@@H]3CN(C)CC[C@H]3c3ccc(Cl)cc3)cc2)cc1
- Ki [3]: 92 nM

Structure (SMILES): CN1CC[C@@H](c2ccc(Cl)cc2)[C@H](C(=O)NCc2ccc(CNC(=O)/C=C/c3ccc(Cl)cc3)cc2)C1
- Ratio [1]: > 29
- Ki [2]: > 2000 nM
- Ki [3]: 69 nM
- Ki [4]: > 2000 nM

Structure (SMILES): CN1CC[C@@H](c2ccc(Cl)cc2)[C@H](C(=O)NCc2ccc(CNC(=O)c3ccc(Cl)cc3)cc2)C1
- Ratio [1]: 44
- Ki [2]: 1540 nM
- Ki [3]: 84 nM
- Ki [4]: 3710 nM

Structure (SMILES): CN1CC[C@@H](c2ccc(Cl)cc2)[C@H](C(=O)NCCCCCNC(=O)[C@@H]2CN(C)CC[C@H]2c2ccc(Cl)cc2)C1
- Ratio [1]: 1630
- Ki [2]: 399 nM
- Ki [3]: 1.2 nM
- Ki [4]: 1960 nM
